Data reported in patent US20240246954A1, “COMPOSITIONS AND METHODS FOR INHIBITING KRAS” (TheRas, Inc., priority 2021, published 2024).

Columns and labels:
[1] = target: T1, Avi-KRAS G12D/Q25A (1-169) GppNHp/3×FLAG-PI3KCA (157-299) (Homo sapiens, UniProt P01116, G12D/Q25A); experiment: HTRF PI3KCA-KRAS G12D/Q25A-GppNHp disruption assay; format: biochemical; details: 1 h incubation
T1 construct: Avi-KRAS G12D/Q25A (1-169) GppNHp
Procedure: (§1) The HTRF assay employed the following protocol:
(§2) Compounds were dispensed in assay plate (384-well, Grenier Bione #784075) using Echo (model 555) with dose response settings: 200 nL final volume, titration from 100 μM as a 10-point dilution series. Protein mix was prepared in assay buffer, and dispensed on plates, 10 μL per well, then incubated for 1 h at room temperature, with 700 rpm shaking. Reagents mix was prepared and dispensed on plates, 10 μL per well, then incubated for 1 h at room temperature, with 700 rpm shaking.
(§3) Plates were analyzed on an Envision plate reader using the following setting: Excitation 320 nm, Bandwidth […]; Emission 615 nm, Bandwidth […], Gain 100%, Flashes 100, Lag 60 μs. Data was reported as percentage of activity, with DMSO as 100%. Data was plotted and analyzed using Prism 8.

[2] = target: T2, Avi-KRAS G12D (1-169) GppNHp/RAF1 RBD-3×FLAG (52-151) (Homo sapiens, UniProt P01116, G12D); experiment: HTRF Raf1-KRAS G12D-GppNHp disruption assay; format: biochemical; details: 1 h incubation
T2 construct: Avi-KRAS G12D (1-169) GppNHp
T2 sequence (P01116 1-169 isoform P01116-2 G12D limits assumed): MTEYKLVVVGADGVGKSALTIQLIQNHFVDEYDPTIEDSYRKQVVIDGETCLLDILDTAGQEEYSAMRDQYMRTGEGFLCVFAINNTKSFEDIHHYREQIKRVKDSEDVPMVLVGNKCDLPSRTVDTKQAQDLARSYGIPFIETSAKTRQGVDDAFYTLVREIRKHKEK
Procedure: as §1, §2, §3

T1 sequence (P01116 1-169 isoform P01116-2 G12D/Q25A limits assumed): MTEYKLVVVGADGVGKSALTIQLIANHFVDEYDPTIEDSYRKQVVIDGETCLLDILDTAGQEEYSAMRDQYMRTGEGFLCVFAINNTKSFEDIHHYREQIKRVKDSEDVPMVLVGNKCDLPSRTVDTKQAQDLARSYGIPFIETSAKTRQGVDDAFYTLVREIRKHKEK

| Compound | IC50 [1] | IC50 [2] |
| --- | --- | --- |
| CN1C[C@H](F)C[C@H]1COc1nc(NC2CNC2)c2cc(-c3ccoc3)c(-c3ccc(F)c4sc(N)nc34)c(F)c2n1 [Compound 135] | 1 to 10 µM | 1 to 10 µM |
| CN1CC(F)(F)C[C@H]1COc1nc(NCCN)c2cc(Cl)c(-c3ccc(F)c4sc(N)nc34)c(F)c2n1 [Compound 136] | 10 to 30 µM | 10 to 30 µM |
| CN1C[C@H](F)C[C@H]1COc1nc(NC2CN(C(=O)CN)C2)c2cc(-c3ccoc3)c(-c3ccc(F)c4sc(N)nc34)c(F)c2n1 [Compound 137] | 10 to 30 µM | 1 to 10 µM |
| CN1C[C@H](F)C[C@H]1COc1nc(N2CCNCC2)c2cc(C(F)(F)F)c(-c3ccc(F)c4sc(N)nc34)c(F)c2n1 [Compound 140] | 10 to 30 µM | 1 to 10 µM |
| CN1C[C@H](F)C[C@H]1COc1nc(N2CCNCC2)c2cc(-c3ccoc3)c(-c3ccc(F)c4sc(N)nc34)c(F)c2n1 [Compound 141] | 10 to 30 µM | 10 to 30 µM |
| CN1CCC[C@H]1COc1nc(N2CCNCC2)c2cc(-c3ccoc3)c(-c3ccc(F)c4sc(N)nc34)c(F)c2n1 [Compound 143, 7-fluoro-4-(8-fluoro-6-(furan-3-yl)-2-(((S)-1-methylpyrrolidin-2-yl)methoxy)-4-(piperazin-1-yl)quinazolin-7-yl)benzo[d]thiazol-2-amine] | 10 to 30 µM | 10 to 30 µM |
| CN1CCC[C@H]1COc1nc(N2CCN(C(=O)CN)CC2)c2cc(-c3ccoc3)c(-c3ccc(F)c4sc(N)nc34)c(F)c2n1 [Compound 144, 2-amino-1-(4-(7-(2-amino-7-fluorobenzo[d]thiazol-4-yl)-8-fluoro-6-(furan-3-yl)-2-(((S)-1-methylpyrrolidin-2-yl)methoxy)quinazolin-4-yl)piperazin-1-yl)ethan-1-one] | 10 to 30 µM | 10 to 30 µM |
| CN1CCC[C@H]1COc1nc(N2CCNCC2)c2cc(-c3ccccc3)c(-c3ccc(F)c4sc(N)nc34)c(F)c2n1 [Compound 145] | 10 to 30 µM | 10 to 30 µM |
| CN1CCC[C@H]1COc1nc(NC2CN(C(=O)CN)C2)c2cc(-c3ccoc3)c(-c3ccc(F)c4sc(N)nc34)c(F)c2n1 [Compound 146] | 10 to 30 µM | 1 to 10 µM |
| CN(c1nc(OC[C@@H]2CCCN2C)nc2c(F)c(-c3ccc(F)c4sc(N)nc34)c(Cl)cc12)C1CN(C(=O)CN)C1 [Compound 147] | 10 to 30 µM | 10 to 30 µM |
| CN1CCC[C@H]1COc1nc(NCCN)c2cc(C(F)(F)F)c(-c3ccc(F)c4sc(N)nc34)c(F)c2n1 [Compound 149] | 1 to 10 µM | 1 to 10 µM |
| CN(c1nc(OC[C@@H]2C[C@@H](F)CN2C)nc2c(F)c(-c3ccc(F)c4sc(N)nc34)c(-c3ccoc3)cc12)C1CN(C(=O)CN)C1 [Compound 150] | 10 to 30 µM | 10 to 30 µM |
| CN(c1nc(OCC23CCCN2CCC3)nc2c(F)c(-c3ccc(F)c4sc(N)nc34)c(-c3ccoc3)cc12)C1CN(C(N)=O)C1 [Compound 151] | 10 to 30 µM | 1 to 10 µM |
| CN1CCC[C@H]1COc1nc(N(C2CC2)C2CNC2)c2cc(Cl)c(-c3ccc(F)c4sc(N)nc34)c(F)c2n1 [Compound 152] | 10 to 30 µM | 10 to 30 µM |
| NCC(=O)N1CC[C@@H]2[C@H]1CN2c1nc(OCC23CCCN2CCC3)nc2c(F)c(-c3ccc(F)c4sc(N)nc34)c(-c3ccoc3)cc12 [Compound 153] | 10 to 30 µM | 1 to 10 µM |
| Nc1nc2c(-c3c(C4CCC4)cc4c(N5CCNCC5)ncnc4c3F)ccc(F)c2s1 [Compound 154] | 10 to 30 µM | 10 to 30 µM |
| CN1CCC[C@H]1COc1nc(N2CCNCC2)c2cc(-c3cccnc3)c(-c3ccc(F)c4sc(N)nc34)c(F)c2n1 [Compound 155, 7-fluoro-4-(8-fluoro-2-(((S)-1-methylpyrrolidin-2-yl)methoxy)-4-(piperazin-1-yl)-6-(pyridin-3-yl)quinazolin-7-yl)benzo[d]thiazol-2-amine] | 1 to 10 µM | 10 to 30 µM |
| CN(c1nc(OC[C@@H]2C[C@@H](F)CN2C)nc2c(F)c(-c3ccc(F)c4sc(N)nc34)c(C(F)(F)F)cc12)C1CN(C(=O)CN)C1 [Compound 156] | 10 to 30 µM | 10 to 30 µM |
